Data as given in the supplement of paper PMC10307832.

How the values were obtained:
Experiment in all cases: relative viability (nuclei count vs DMSO), 5 days (fraction); higher = more cells survive
A-427 = tested on: A-427
In short: (§1)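 Dosing by pin tool came one day after lung cancer cell lines were seeded in 1536-well plates, using either one drug or a fixed anchor-drug dose plus five library-drug doses (not always all listed) in √10 steps. After 5 days, nuclei were counted on 4× images. Relative viability is treated-well nuclei count divided by vehicle-well nuclei count, and values are medians of duplicate plates.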

COR-L 105 = tested on: COR-L 105
In short: as §1

EPLC-272H = tested on: EPLC-272H
In short: as §1

HCC-366 = tested on: HCC-366
In short: as §1

HCC-78 = tested on: HCC-78
In short: as §1

HOP-62 = tested on: HOP-62
In short: as §1

LC-2-ad = tested on: LC-2-ad
In short: as §1

LCLC-97TM1 = tested on: LCLC-97TM1
In short: as §1

LU99A = tested on: LU99A
In short: as §1

LXF-289 = tested on: LXF-289
In short: as §1

NCI-H1755 = tested on: NCI-H1755
In short: as §1

NC(=O)Nc1cc(-c2cccc(F)c2)sc1C(=O)N[C@H]1CCCNC1 [AZD7762] + C[C@@H](Oc1cc(-c2cnn(C3CCNCC3)c2)cnc1N)c1c(Cl)ccc(F)c1Cl [Crizotinib] (partner 1 µM)
relative viability (A-427; first compound 0.01 µM): 1.01 | relative viability (A-427; first compound 0.03162 µM): 0.869 | relative viability (A-427; first compound 0.1 µM): 0.992 | relative viability (A-427; first compound 0.3162 µM): 0.815 | relative viability (A-427; first compound 1 µM): 0.386 | relative viability (COR-L 105; first compound 0.01 µM): 0.877 | relative viability (COR-L 105; first compound 0.03162 µM): 0.772 | relative viability (COR-L 105; first compound 0.1 µM): 0.591 | relative viability (COR-L 105; first compound 0.3162 µM): 0.406 | relative viability (COR-L 105; first compound 1 µM): 0.271 | relative viability (EPLC-272H; first compound 0.01 µM): 0.895 | relative viability (EPLC-272H; first compound 0.03162 µM): 1.11 | relative viability (EPLC-272H; first compound 0.1 µM): 0.967 | relative viability (EPLC-272H; first compound 0.3162 µM): 0.859 | relative viability (EPLC-272H; first compound 1 µM): 0.75 | relative viability (HCC-366; first compound 0.01 µM): 0.678 | relative viability (HCC-366; first compound 0.03162 µM): 0.478 | relative viability (HCC-366; first compound 0.1 µM): 0.542 | relative viability (HCC-366; first compound 0.3162 µM): 0.323 | relative viability (HCC-366; first compound 1 µM): 0.0525 | relative viability (HCC-78; first compound 0.01 µM): 0.364 | relative viability (HCC-78; first compound 0.03162 µM): 0.35 | relative viability (HCC-78; first compound 0.1 µM): 0.317 | relative viability (HCC-78; first compound 0.3162 µM): 0.326 | relative viability (HCC-78; first compound 1 µM): 0.255 | relative viability (HOP-62; first compound 0.01 µM): 0.786 | relative viability (HOP-62; first compound 0.03162 µM): 1.03 | relative viability (HOP-62; first compound 0.1 µM): 1.17 | relative viability (HOP-62; first compound 0.3162 µM): 1.1 | relative viability (HOP-62; first compound 1 µM): 1.16 | relative viability (LC-2-ad; first compound 0.01 µM): 0.551 | relative viability (LC-2-ad; first compound 0.03162 µM): 0.483 | relative viability (LC-2-ad; first compound 0.1 µM): 0.52 | relative viability (LC-2-ad; first compound 0.3162 µM): 0.522 | relative viability (LC-2-ad; first compound 1 µM): 0.295 | relative viability (LCLC-97TM1; first compound 0.01 µM): 0.385 | relative viability (LCLC-97TM1; first compound 0.03162 µM): 0.337 | relative viability (LCLC-97TM1; first compound 0.1 µM): 0.317 | relative viability (LCLC-97TM1; first compound 0.3162 µM): 0.448 | relative viability (LCLC-97TM1; first compound 1 µM): 0.334 | relative viability (LU99A; first compound 0.01 µM): 0.725 | relative viability (LU99A; first compound 0.03162 µM): 0.67 | relative viability (LU99A; first compound 0.1 µM): 0.602 | relative viability (LU99A; first compound 0.3162 µM): 0.587 | relative viability (LU99A; first compound 1 µM): 0.228 | relative viability (LXF-289; first compound 0.01 µM): 0.788 | relative viability (LXF-289; first compound 0.03162 µM): 0.8 | relative viability (LXF-289; first compound 0.1 µM): 0.828 | relative viability (LXF-289; first compound 0.3162 µM): 0.864 | relative viability (LXF-289; first compound 1 µM): 0.816 | relative viability (NCI-H1755; first compound 0.01 µM): 0.901 | relative viability (NCI-H1755; first compound 0.03162 µM): 0.872
